Source: US20250188069A1, “COMPOUNDS AND METHODS FOR DEGRADING CASEIN KINASE 1 ALPHA” (PIN THERAPEUTICS, INC., priority 2022, published 2025)
Structures can show the parent of a compound that is named as a salt.

tested on: MV-4-11 cells; assay: AML cell viability assay (RealTime-Glo); type: cell-based; settings: Homo sapiens, MV4-11, 44 h, read-out: Cell viability classification

SMILES | IC50
O=C1CCC(N2Cc3c(cccc3N(CCC3CC3)[C@H]3CC[C@@H](Nc4ccccn4)CC3)C2=O)C(=O)N1 (stereo partly shown) [Compound 575, 3-{4-[(2-cyclopropylethyl)[(1s,4s)-4-(pyridin-2-ylamino)cyclohexyl]amino]-1-oxo-3H-isoindol-2-yl}piperidine-2,6-dione] | 100 to 1000 nM
O=C1CCC(N2Cc3c(cccc3N(CCC3CC3)[C@H]3CC[C@H](Nc4ccccn4)CC3)C2=O)C(=O)N1 (stereo partly shown) [Compound 576, 3-{4-[(2-cyclopropylethyl)[(1r,4r)-4-(pyridin-2-ylamino)cyclohexyl]amino]-1-oxo-3H-isoindol-2-yl}piperidine-2,6-dione] | 100 to 1000 nM

same assay, conditions: Homo sapiens, MV4-11; IC50 class; MV-4-11 cells, RealTime-Glo after 44 hrs of treatment (TABLE 1); read-out: Cell viability classification

SMILES | IC50
N[C@H]1CC[C@H](N(CCCC2CCCO2)c2cccc3c2CN(C2CCC(=O)NC2=O)C3=O)CC1 (stereo partly shown) [Compound 346, 3-(4-(((1r,4r)-4-aminocyclohexyl)(3-(tetrahydrofuran-2-yl)propyl)amino)-1-oxoisoindolin-2-yl)piperidine-2,6-dione, HCl] | 100 to 1000 nM
N[C@H]1CC[C@H](N(CCCC2COC2)c2cccc3c2CN(C2CCC(=O)NC2=O)C3=O)CC1 (stereo partly shown) [Compound 347, 3-(4-(((1r,4r)-4-aminocyclohexyl)(3-(oxetan-3-yl)propyl)amino)-1-oxoisoindolin-2-yl)piperidine-2,6-dione] | 100 to 1000 nM
N[C@H]1CC[C@H](N(Cc2ccccc2)c2cccc3c2CN(C2CCC(=O)NC2=O)C3=O)CC1 (stereo partly shown) [Compound 349, 3-(4-(((1r,4r)-4-aminocyclohexyl)(benzyl)amino)-1-oxoisoindolin-2-yl)piperidine-2,6-dione] | > 1000 nM
N[C@H]1CC[C@@H](N(CCC2CC2)c2cccc3c2CN(C2CCC(=O)NC2=O)C3=O)C1 (stereo partly drawn) [Compound 352, 3-(4-(((1R,3S)-3-aminocyclopentyl)(2-cyclopropylethyl)amino)-1-oxoisoindolin-2-yl)piperidine-2,6-dione] | < 100 nM
N[C@H]1CC[C@@H](N(CCCC2CCOCC2)c2cccc3c2CN(C2CCC(=O)NC2=O)C3=O)C1 (stereo partly drawn) [Compound 353, 3-(4-(((1R,3S)-3-aminocyclopentyl)(3-(tetrahydro-2H-pyran-4-yl)propyl)amino)-1-oxoisoindolin-2-yl)piperidine-2,6-dione] | 100 to 1000 nM
C[C@H]1CC[C@@H](N(c2cccc3c2CN(C2CCC(=O)NC2=O)C3=O)[C@@H]2CC[C@H](N)C2)CC1 (stereo partly drawn) [Compound 354, 3-(4-(((1R,3S)-3-aminocyclopentyl)((1s,4S)-4-methylcyclohexyl)amino)-1-oxoisoindolin-2-yl)piperidine-2,6-dione] | > 1000 nM
O=C1CCC(N2Cc3c(cccc3N(CCC3CC3)[C@@H]3CC[C@H](NCC4CC4)C3)C2=O)C(=O)N1 (stereo partly drawn) [Compound 355, 3-(4-((2-cyclopropylethyl)((1R,3S)-3-((cyclopropylmethyl)amino)cyclopenty 1)amino)-1-oxoisoindolin-2-yl)piperidine-2,6-dione] | < 100 nM
O=C1CCC(N2Cc3c(cccc3N(CCCC3CCOCC3)[C@@H]3CC[C@H](NCC4CC4)C3)C2=O)C(=O)N1 (stereo partly drawn) [Compound 356, 3-(4-(((1R,3S)-3-((cyclopropylmethyl)amino)cyclopenty 1)(3-(tetrahydro-2H-pyran-4-yl)propyl)amino)-1-oxoisoindolin-2-yl)piperidine-2,6-dione] | < 100 nM
NC(=O)[C@H]1CC[C@@H](N(CCC2CC2)c2cccc3c2CN(C2CCC(=O)NC2=O)C3=O)C1 (stereo partly drawn) [Compound 359, (1S,3R)-3-((2-cyclopropylethyl)(2-(2,6-dioxopiperidin-3-yl)-1-oxoisoindolin-4-yl)amino)cyclopentane-1-carboxamide] | < 100 nM
CNC(=O)[C@H]1CC[C@@H](N(CCC2CC2)c2cccc3c2CN(C2CCC(=O)NC2=O)C3=O)C1 (stereo partly drawn) [Compound 360, (1S,3R)-3-((2-cyclopropylethyl)(2-(2,6-dioxopiperidin-3-yl)-1-oxoisoindolin-4-yl)amino)-N-methylcyclopentane-1-carboxamide] | < 100 nM
NC(=O)[C@H]1CC[C@@H](N(CCCC2CCOCC2)c2cccc3c2CN(C2CCC(=O)NC2=O)C3=O)C1 (stereo partly drawn) [Compound 361, (1S,3R)-3-((2-(2,6-dioxopiperidin-3-yl)-1-oxoisoindolin-4-yl)(3-(tetrahydro-2H-pyran-4-yl)propyl)amino)cyclopentane-1-carboxamide] | 100 to 1000 nM
CNC(=O)[C@H]1CC[C@@H](N(CCCC2CCOCC2)c2cccc3c2CN(C2CCC(=O)NC2=O)C3=O)C1 (stereo partly drawn) [Compound 362, (1S,3R)-3-((2-(2,6-dioxopiperidin-3-yl)-1-oxoisoindolin-4-yl)(3-(tetrahydro-2H-pyran-4-yl)propyl)amino)-N-methylcyclopentane-1-carboxamide] | 100 to 1000 nM

same assay, conditions: Homo sapiens, MV4-11; IC50 class; MV-4-11 cells, RealTime-Glo after 44 hrs of treatment (TABLE 4); read-out: Cell viability classification

SMILES | IC50
N[C@H]1CO[C@H]2[C@@H]1OC[C@@H]2N(CCC1CC1)c1cccc2c1CN(C1CCC(=O)NC1=O)C2=O (stereo partly drawn) [Compound 550, 3-(4-{[(3S,3aR,6S,6aR)-6-amino-hexahydrofuro[3,2-b]furan-3-yl](2-cyclopropylethyl)amino}-1-oxo-3H-isoindol-2-yl)piperidine-2,6-dione] | 100 to 1000 nM
O=C1CCC(N2Cc3c(cccc3N(CCC3(C(F)(F)F)CC3)[C@H]3CC[C@H](NC4CC(F)(F)C4)CC3)C2=O)C(=O)N1 (stereo partly shown) [Compound 554, 3-(4-(((1r,4r)-4-((3,3-difluorocyclobutyl)amino)cyclohexyl)(2-(1-(trifluoromethyl)cyclopropyl)ethyl)amino)-1-oxoisoindolin-2-yl)piperidine-2,6-dione formate] | 100 to 1000 nM
O=C1CCC(N2Cc3c(cccc3N(CCC3(C(F)(F)F)CC3)[C@H]3CC[C@@H](NC4CC(F)(F)C4)CC3)C2=O)C(=O)N1 (stereo partly shown) [Compound 554A, 3-(4-(((1s,4s)-4-((3,3-difluorocyclobutyl)amino)cyclohexyl)(2-(1-(trifluoromethyl)cyclopropyl)ethyl)amino)-1-oxoisoindolin-2-yl)piperidine-2,6-dione] | 100 to 1000 nM
O=C1CCC(N2Cc3c(cccc3N(CC3CC4(CCC4)C3)[C@H]3CC[C@H](NC4CC(F)(F)C4)CC3)C2=O)C(=O)N1 (stereo partly shown) [Compound 557, 3-(1-oxo-4-{[(1r,4r)-4-[(3,3-difluorocyclobutyl)amino]cyclohexyl]({spiro[3.3]heptan-2-ylmethyl})amino}-3H-isoindol-2-yl)piperidine-2,6-dione] | 100 to 1000 nM
N[C@H]1C[C@H](CN(CC2CC3(CCC3)C2)c2cccc3c2CN(C2CCC(=O)NC2=O)C3=O)C1 (stereo partly shown) [Compound 558-2, 3-[1-oxo-4-({[(1r,3r)-3-aminocyclobutyl]methyl}({spiro[3.3]heptan-2-ylmethyl})amino)-3H-isoindol-2-yl]piperidine-2,6-dione] | < 100 nM
O=C1CCC(N2Cc3c(cccc3N(CCC3CC3)[C@H]3CC[C@H](NCC(=O)N4CCC(F)(F)CC4)CC3)C2=O)C(=O)N1 (stereo partly shown) [Compound 561, 3-{4-[(2-cyclopropylethyl)[(1r,4r)-4-{[2-(4,4-difluoropiperidin-1-yl)-2-oxoethyl]amino}cyclohexyl]amino]-1-oxo-3H-isoindol-2-yl}piperidine-2,6-dione] | < 100 nM
CCN(CC)C(=O)CN[C@H]1CC[C@H](N(CCC2CC2)c2cccc3c2CN(C2CCC(=O)NC2=O)C3=O)CC1 (stereo partly shown) [Compound 562, N,N-diethyl-2-{[(1r,4r)-4-[(2-cyclopropylethyl)[2-(2,6-dioxopiperidin-3-yl)-1-oxo-3H-isoindol-4-yl]amino]cyclohexyl]amino}acetamide] | 100 to 1000 nM
O=C1CCC(N2Cc3c(cccc3N(CCC3CC3)[C@H]3CC[C@@H](c4nnc[nH]4)CC3)C2=O)C(=O)N1 (stereo partly shown) [Compound 573, 3-{4-[(2-cyclopropylethyl)[(1s,4s)-4-(4H-1,2,4-triazol-3-yl)cyclohexyl]amino]-1-oxo-3H-isoindol-2-yl}piperidine-2,6-dione; formate] | < 100 nM
O=C1CCC(N2Cc3c(cccc3N(CCC3CC3)[C@H]3CC[C@H](c4nnc[nH]4)CC3)C2=O)C(=O)N1 (stereo partly shown) [Compound 574, 3-{4-[(2-cyclopropylethyl)[(1r,4r)-4-(4H-1,2,4-triazol-3-yl)cyclohexyl]amino]-1-oxo-3H-isoindol-2-yl}piperidine-2,6-dione; formate] | 100 to 1000 nM
O=C1CCC(N2Cc3c(cccc3N(CCC3CC3)[C@H]3CC[C@H](NCC(F)(F)F)CC3)C2=O)C(=O)N1 (stereo partly shown) [Compound 580, 3-{4-[(2-cyclopropylethyl)[(1r,4r)-4-[(2,2,2-trifluoroethyl)amino]cyclohexyl]amino]-1-oxo-3H-isoindol-2-yl}piperidine-2,6-dione] | > 1000 nM
O=C1CCC(N2Cc3c(cccc3N(CCC3CC3)[C@H]3CC[C@H](NCC4(C(F)(F)F)CC4)CC3)C2=O)C(=O)N1 (stereo partly shown) [Compound 582, 3-{4-[(2-cyclopropylethyl)[(1r,4r)-4-({[1-(trifluoromethyl)cyclopropyl]methyl}amino)cyclohexyl]amino]-1-oxo-3H-isoindol-2-yl}piperidine-2,6-dione] | < 100 nM
CC(N[C@H]1CC[C@H](N(CCC2CC2)c2cccc3c2CN(C2CCC(=O)NC2=O)C3=O)CC1)C(F)F (stereo partly shown) [Compound 583, 3-{4-[(2-cyclopropylethyl)[(1r,4r)-4-[(1,1-difluoropropan-2-yl)amino]cyclohexyl]amino]-1-oxo-3H-isoindol-2-yl}piperidine-2,6-dione] | 100 to 1000 nM
N#CC1(CN[C@H]2CC[C@H](N(CCC3CC3)c3cccc4c3CN(C3CCC(=O)NC3=O)C4=O)CC2)CC1 (stereo partly shown) [Compound 611, 1-({[(1r,4r)-4-[(2-cyclopropylethyl)[2-(2,6-dioxopiperidin-3-yl)-1-oxo-3H-isoindol-4-yl]amino]cyclohexyl]amino}methyl)cyclopropane-1-carbonitrile] | < 100 nM
O=C1CCC(N2Cc3c(cccc3N(CCC3CC3)[C@H]3CC[C@@H](NCC4(F)CC4)CC3)C2=O)C(=O)N1 (stereo partly shown) [Compound 612A, 3-{4-[(2-cyclopropylethyl)[(1s,4s)-4-{[(1-fluorocyclopropyl)methyl]amino}cyclohexyl]amino]-1-oxo-3H-isoindol-2-yl}piperidine-2,6-dione] | 100 to 1000 nM
